Experimental data from ChEMBL document CHEMBL5321200, “Discovery of the GSH responsive "Y-PROTACs" targeting ALK and CDK4/6 as a potential treatment for cancer” (Eur J Med Chem, 2023).
Active and inactive are the calls of the source. No cut-off for these calls is given here.

How the values were obtained:
[1] = target: T1, Protein cereblon/ALK tyrosine kinase receptor/Echinoderm microtubule-associated protein-like 4 (Homo sapiens) (UniProt Q9UM73+Q9HC35+Q96SW2); experiment: PROTAC activity at CRBN/EML4-ALK in human L02 cells assessed as reduction in ALK protein level at 1 to 20 uM incubated for 24 hrs by Western blot analysis; type: cell-based; conditions: dose 1-20 µM
[2] = Stability of the compound in mouse plasma assessed as cleavage to metabolites measured after 4 hrs by LC-MS/MS analysis relative to control; type: ADME, cell-free
NCI-H3122 [3] = experiment: Inhibition of colony formation in human NCI-H3122 cells assessed as reduction in number of colonies at 0.312 uM measured after 10 days by crystal violet staining based microscopic analysis relative to control; type: functional; conditions: NCI-H3122, 240 h, time 10 day
NCI-H3122 [4] = experiment: Induction of apoptosis in human NCI-H3122 cells assessed as late apoptotic cells at 1.25 uM incubated for 48 hrs by Annexin V-FITC/propidium iodide staining based flow cytometric analysis (reference value: 3.06%); type: functional
NCI-H3122 [5] = experiment: Antiproliferative activity against human NCI-H3122 cells assessed as inhibition of cell growth pretreated with GSH followed by compound addition and incubated for 3 to 5 days by MTT assay; type: functional, cell-based
[6] = target: T1, Protein cereblon/ALK tyrosine kinase receptor/Echinoderm microtubule-associated protein-like 4 (Homo sapiens); experiment: PROTAC activity at CRBN/EML4-ALK in human NCI-H3122 cells assessed as reduction in EML4-ALK fusion protein level at 5 uM incubated for 48 hrs followed by compound washout and measured within 16 hrs by Western blot analysis; type: cell-based
[7] = target: Protein cereblon/ALK tyrosine kinase receptor (Homo sapiens) (UniProt Q9UM73+Q96SW2); experiment: PROTAC activity at CRBN/ALK in human NCI-H2228 cells assessed as reduction in ALK protein level by Western blot analysis; type: cell-based
[8] = Toxicity in BALB/c nude mouse xenografted with human NCI-H3122 cells assessed as effect on visceral heart morphology at 75 mg/kg, IG administered once daily for 18 days and measured after 12 hrs of last dose by H and E staining based analysis; type: organism-based; conditions: in vivo, po, 444 h
NCI-H3122 [9] = experiment: Antitumor activity against human NCI-H3122 cells xenografted in BALB/c nude mouse assessed as tumor growth inhibition at 75 mg/kg, IG administered once daily for 18 days and measured after 12 hrs of last dose relative to control; type: functional; conditions: NCI-H3122, po, time 444 hrs, read-out: TGI
[10] = target: T2, Protein cereblon/Cyclin-dependent kinase 4 (Homo sapiens, UniProt P11802+Q96SW2); experiment: PROTAC activity at CRBN/CDK4 in human NCI-H3122 cells assessed as decrease in CDK4 protein level at 0.1 to 20 uM incubated for 24 hrs in presence of GSH by Western blot analysis; type: cell-based; conditions: dose 0.1-20 µM
[11] = target: T2, Protein cereblon/Cyclin-dependent kinase 4; experiment: PROTAC activity at CRBN/CDK4 in human NCI-H3122 cells assessed as induction of CDK4 protein degradation at 5 uM measured after 16 hrs by Western blot analysis; type: cell-based
NCI-H3122 [12] = experiment: Induction of apoptosis in human NCI-H3122 cells assessed as early apoptotic cells at 0.312 uM incubated for 48 hrs by Annexin V-FITC/propidium iodide staining based flow cytometric analysis (reference value: 0.71%); type: functional
NCI-H3122 [13] = experiment: Induction of apoptosis in human NCI-H3122 cells assessed as early apoptotic cells at 0.625 uM incubated for 48 hrs by Annexin V-FITC/propidium iodide staining based flow cytometric analysis (reference value: 0.71%); type: functional
NCI-H2228 = experiment: Antiproliferative activity against human NCI-H2228 cells assessed as inhibition of cell growth incubated for 3 to 5 days by MTT assay; type: functional, cell-based
NCI-H3122 [14] = experiment: Induction of apoptosis in human NCI-H3122 cells assessed as late apoptotic cells at 2.5 uM incubated for 48 hrs by Annexin V-FITC/propidium iodide staining based flow cytometric analysis (reference value: 3.06%); type: functional
[15] = Stability of the compound in PBS buffer incubated upto 24 hrs in the presence of GSH by LC-MS/MS analysis; type: physicochemical
[16] = target: T2, Protein cereblon/Cyclin-dependent kinase 4; experiment: PROTAC activity at CRBN/CDK4 in human NCI-H3122 cells assessed as increase in CDK4 protein level at 5 uM measured after 24 hrs by Western blot analysis; type: cell-based
NCI-H3122 [17] = experiment: Cell cycle arrest in human NCI-H3122 cells assessed as G2/M phase cells at 0.625 uM incubated for 24 hrs by propidium iodide staining based flow cytometric analysis (reference value: 20.89%); type: functional
NCI-H3122 [18] = experiment: Cell cycle arrest in human NCI-H3122 cells assessed as G2/M phase cells at 0.312 uM incubated for 24 hrs by propidium iodide staining based flow cytometric analysis (reference value: 20.89%); type: functional
[19] = target: T1, Protein cereblon/ALK tyrosine kinase receptor/Echinoderm microtubule-associated protein-like 4 (Homo sapiens); experiment: PROTAC activity at CRBN/EML4-ALK in human NCI-H2228 cells assessed as reduction in EML4-ALK fusion protein level incubated for 24 hrs by Western blot analysis; type: cell-based
NCI-H3122 [20] = experiment: Induction of apoptosis in human NCI-H3122 cells assessed as viable cells at 2.5 uM incubated for 48 hrs by Annexin V-FITC/propidium iodide staining based flow cytometric analysis (reference value: 95.66%); type: functional; conditions: read-out: Activity
NCI-H3122 [21] = experiment: Antiproliferative activity against human NCI-H3122 cells assessed as inhibition of cell growth incubated for 5 days by MTT assay; type: functional, cell-based; conditions: NCI-H3122, 120 h
[22] = target: T2, Protein cereblon/Cyclin-dependent kinase 4; experiment: PROTAC activity at CRBN/CDK4 in human NCI-H3122 cells assessed as induction of CDK4 degradation at 5 uM pretreated with pomalidomide for 4 hrs followed compound addition and measured after 24 hrs by Western blot analysis; type: cell-based
[23] = target: Protein cereblon/Cyclin-dependent kinase 6 (Homo sapiens) (UniProt Q00534+Q96SW2); experiment: PROTAC activity at CRBN/CDK6 in human NCI-H3122 cells assessed as reduction in CDK6 protein level at 1 to 10 uM incubated for 24 hrs by Western blot analysis; type: cell-based; conditions: dose 1-10 µM
Mus musculus = experiment: In vivo PROTAC activity at CDK4 in BALB/c nude mouse xenografted with human NCI-H3122 cells assessed as reduction in CDK4 protein expression level in tumor at 75 mg/kg, IG administered once daily for 18 days and measured after 12 hrs of last dose by immunohistochemical analysis; type: functional, organism-based; conditions: time 444.0 hrs
NCI-H3122 [24] = experiment: Induction of apoptosis in human NCI-H3122 cells assessed as viable cells at 0.625 uM incubated for 48 hrs by Annexin V-FITC/propidium iodide staining based flow cytometric analysis (reference value: 95.66%); type: functional; conditions: read-out: Activity
NCI-H3122 [25] = experiment: Induction of apoptosis in human NCI-H3122 cells assessed as early apoptotic cells at 2.5 uM incubated for 48 hrs by Annexin V-FITC/propidium iodide staining based flow cytometric analysis (reference value: 0.71%); type: functional
[26] = Toxicity in BALB/c nude mouse xenografted with human NCI-H3122 cells assessed as effect on kidney function at 75 mg/kg, IG administered once daily for 18 days by H and E staining based assay; type: organism-based; conditions: in vivo, po, 432 h, time 18 day
NCI-H3122 [27] = experiment: Cell cycle arrest in human NCI-H3122 cells assessed as accumulation of cells at G0/G1 phase at 1.25 uM incubated for 24 hrs by propidium iodide staining based flow cytometric analysis (reference value: 48.68%); type: functional

T2 sequence (P11802 2-303 limits assumed): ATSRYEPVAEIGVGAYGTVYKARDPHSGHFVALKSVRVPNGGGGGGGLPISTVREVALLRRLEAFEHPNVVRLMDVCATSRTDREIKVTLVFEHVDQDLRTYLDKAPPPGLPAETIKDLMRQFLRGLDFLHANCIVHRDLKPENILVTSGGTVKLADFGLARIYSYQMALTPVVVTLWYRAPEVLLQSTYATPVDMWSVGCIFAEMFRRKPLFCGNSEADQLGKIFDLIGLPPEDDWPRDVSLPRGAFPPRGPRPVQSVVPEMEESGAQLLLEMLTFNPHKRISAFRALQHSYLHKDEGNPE
T2 sequence (Q96SW2 whole entry partner): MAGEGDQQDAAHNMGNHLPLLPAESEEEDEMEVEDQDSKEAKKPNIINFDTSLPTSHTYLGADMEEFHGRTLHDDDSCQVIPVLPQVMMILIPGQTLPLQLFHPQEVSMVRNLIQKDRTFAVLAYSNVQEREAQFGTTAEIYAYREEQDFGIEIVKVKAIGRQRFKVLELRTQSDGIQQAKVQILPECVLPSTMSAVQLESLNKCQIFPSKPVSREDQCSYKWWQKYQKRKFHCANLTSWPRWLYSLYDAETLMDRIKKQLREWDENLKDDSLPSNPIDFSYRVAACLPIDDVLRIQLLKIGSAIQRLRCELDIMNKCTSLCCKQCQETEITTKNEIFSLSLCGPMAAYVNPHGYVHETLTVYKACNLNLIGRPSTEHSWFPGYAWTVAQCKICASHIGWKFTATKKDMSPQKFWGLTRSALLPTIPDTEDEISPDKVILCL
T1 sequence (Q96SW2 whole entry partner): as above
T1 sequence (Q9HC35 whole entry partner): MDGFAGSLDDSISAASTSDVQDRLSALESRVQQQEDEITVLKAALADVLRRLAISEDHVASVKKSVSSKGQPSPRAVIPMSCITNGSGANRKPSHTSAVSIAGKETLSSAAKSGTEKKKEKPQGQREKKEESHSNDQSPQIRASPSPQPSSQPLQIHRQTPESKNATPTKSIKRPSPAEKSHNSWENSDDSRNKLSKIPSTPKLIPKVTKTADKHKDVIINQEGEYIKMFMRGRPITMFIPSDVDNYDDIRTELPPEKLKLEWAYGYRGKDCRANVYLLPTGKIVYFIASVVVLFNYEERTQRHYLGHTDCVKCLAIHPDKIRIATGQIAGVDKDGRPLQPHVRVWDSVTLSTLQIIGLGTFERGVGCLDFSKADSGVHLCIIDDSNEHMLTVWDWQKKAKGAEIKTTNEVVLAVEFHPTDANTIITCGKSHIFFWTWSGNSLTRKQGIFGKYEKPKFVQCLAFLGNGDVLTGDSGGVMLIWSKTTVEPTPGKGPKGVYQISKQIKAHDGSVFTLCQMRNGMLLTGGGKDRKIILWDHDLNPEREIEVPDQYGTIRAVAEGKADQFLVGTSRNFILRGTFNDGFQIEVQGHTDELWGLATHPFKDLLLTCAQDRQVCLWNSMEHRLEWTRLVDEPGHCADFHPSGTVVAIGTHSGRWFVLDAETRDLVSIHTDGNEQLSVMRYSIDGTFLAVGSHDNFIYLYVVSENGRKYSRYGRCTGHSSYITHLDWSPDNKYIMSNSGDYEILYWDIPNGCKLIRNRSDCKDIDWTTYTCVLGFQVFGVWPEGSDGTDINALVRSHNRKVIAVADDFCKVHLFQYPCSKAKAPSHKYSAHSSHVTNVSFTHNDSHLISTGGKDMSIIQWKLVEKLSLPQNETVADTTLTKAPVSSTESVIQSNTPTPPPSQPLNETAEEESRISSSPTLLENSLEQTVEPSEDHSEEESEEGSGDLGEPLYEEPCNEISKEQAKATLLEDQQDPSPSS
T1 sequence (Q9UM73 19-1620 limits assumed): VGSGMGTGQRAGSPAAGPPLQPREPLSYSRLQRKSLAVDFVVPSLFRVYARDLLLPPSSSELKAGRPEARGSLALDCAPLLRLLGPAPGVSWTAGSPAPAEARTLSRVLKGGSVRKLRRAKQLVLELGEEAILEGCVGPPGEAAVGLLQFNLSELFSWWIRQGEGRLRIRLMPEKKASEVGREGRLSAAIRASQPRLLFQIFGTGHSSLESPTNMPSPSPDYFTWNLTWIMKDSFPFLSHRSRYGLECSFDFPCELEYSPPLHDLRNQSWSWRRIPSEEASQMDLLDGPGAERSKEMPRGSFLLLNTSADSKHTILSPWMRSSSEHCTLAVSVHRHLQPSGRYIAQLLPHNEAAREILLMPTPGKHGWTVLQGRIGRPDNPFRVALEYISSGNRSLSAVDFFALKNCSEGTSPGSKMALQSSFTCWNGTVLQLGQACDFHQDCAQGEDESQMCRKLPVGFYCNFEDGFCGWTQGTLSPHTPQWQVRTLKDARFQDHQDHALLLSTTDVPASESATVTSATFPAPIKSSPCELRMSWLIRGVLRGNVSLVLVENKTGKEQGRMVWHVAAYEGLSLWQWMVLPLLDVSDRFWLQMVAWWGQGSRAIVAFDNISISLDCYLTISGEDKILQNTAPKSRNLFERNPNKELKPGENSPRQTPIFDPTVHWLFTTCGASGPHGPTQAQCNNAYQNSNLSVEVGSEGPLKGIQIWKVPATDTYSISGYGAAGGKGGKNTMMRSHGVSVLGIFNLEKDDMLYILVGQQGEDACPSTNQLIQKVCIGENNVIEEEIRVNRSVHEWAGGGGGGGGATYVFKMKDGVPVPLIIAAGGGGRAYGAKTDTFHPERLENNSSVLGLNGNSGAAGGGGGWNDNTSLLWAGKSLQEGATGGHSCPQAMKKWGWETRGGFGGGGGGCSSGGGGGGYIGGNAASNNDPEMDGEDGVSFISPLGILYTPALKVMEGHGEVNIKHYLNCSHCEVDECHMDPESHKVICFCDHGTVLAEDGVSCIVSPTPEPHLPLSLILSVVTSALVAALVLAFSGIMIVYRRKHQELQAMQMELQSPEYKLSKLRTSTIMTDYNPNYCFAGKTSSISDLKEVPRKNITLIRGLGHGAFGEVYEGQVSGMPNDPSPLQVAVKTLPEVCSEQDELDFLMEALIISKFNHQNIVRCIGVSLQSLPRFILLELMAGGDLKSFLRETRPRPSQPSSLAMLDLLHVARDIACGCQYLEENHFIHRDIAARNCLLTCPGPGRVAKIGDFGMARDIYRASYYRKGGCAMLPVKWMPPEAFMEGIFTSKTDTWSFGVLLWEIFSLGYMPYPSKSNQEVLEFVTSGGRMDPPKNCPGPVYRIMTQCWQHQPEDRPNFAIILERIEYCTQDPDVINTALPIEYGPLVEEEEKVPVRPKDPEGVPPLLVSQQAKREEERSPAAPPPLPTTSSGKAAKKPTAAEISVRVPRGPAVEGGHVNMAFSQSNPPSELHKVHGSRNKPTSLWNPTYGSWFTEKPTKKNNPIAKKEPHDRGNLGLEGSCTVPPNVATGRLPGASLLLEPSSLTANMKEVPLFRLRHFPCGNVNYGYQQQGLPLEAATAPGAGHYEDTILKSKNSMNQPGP
Chain of Protein cereblon/Cyclin-dependent kinase 6 (Homo sapiens) (Q00534 whole entry, looked up): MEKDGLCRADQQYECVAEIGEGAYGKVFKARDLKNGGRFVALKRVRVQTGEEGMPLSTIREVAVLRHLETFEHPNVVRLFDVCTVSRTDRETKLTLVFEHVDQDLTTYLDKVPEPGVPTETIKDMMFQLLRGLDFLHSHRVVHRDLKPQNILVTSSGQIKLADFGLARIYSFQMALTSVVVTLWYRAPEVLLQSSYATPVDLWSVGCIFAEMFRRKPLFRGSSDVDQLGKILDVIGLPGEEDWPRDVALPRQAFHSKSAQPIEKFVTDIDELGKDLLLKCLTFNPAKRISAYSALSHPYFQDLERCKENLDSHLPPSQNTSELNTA
Chain of Protein cereblon/Cyclin-dependent kinase 6 (Homo sapiens) (Q96SW2 whole entry, looked up): as the sequence (Q96SW2 whole entry partner) above
Chain of Protein cereblon/ALK tyrosine kinase receptor (Homo sapiens) (Q96SW2 whole entry partner): as above
Chain of Protein cereblon/ALK tyrosine kinase receptor (Homo sapiens) (Q9UM73 19-1620 limits assumed): as the sequence (Q9UM73 19-1620 limits assumed) above

- Activity [1]: Active
- Drug degradation [2]: 30%
- IC50 (NCI-H3122 [5]): 90 nM
- Activity [6]: Active
- Activity [7]: Active
- Activity [10]: inactive
- Activity [11]: Active
- IC50 (NCI-H2228): 5560 nM
- Stability [15]: Stable
- Activity [16]: inactive
- Activity [19]: Active
- IC50 (NCI-H3122 [21]): 110 nM
- Activity [22]: inactive
- Activity [23]: inactive
SMILES: CC(=O)c1c(C)c2cnc(Nc3ccc(N4CCN(CC(=O)NCCSSCCN(CC(=O)NCCNc5cccc6c5C(=O)N(C5CCC(=O)NC5=O)C6=O)C(=O)CCCCCCC(=O)N5CCC(c6cc(OC(C)C)c(Nc7ncc(Cl)c(Nc8ccccc8S(=O)(=O)C(C)C)n7)cc6C)CC5)CC4)cn3)nc2n(C2CCCC2)c1=O (centres undefined)
- inhibition at 0.312 µM (NCI-H3122 [3]): 100%
- Activity (NCI-H3122 [4]): 10.54%
- Activity [8]: Non-Toxic
- inhibition in vivo at 75 mg/kg (NCI-H3122 [9]): 60.5%
- Activity (NCI-H3122 [12]): 1.92%
- Activity (NCI-H3122 [13]): 0.88%
- Activity (NCI-H3122 [14]): 15.81%
- Activity (NCI-H3122 [17]): 16.42%
- Activity (NCI-H3122 [18]): 18.82%
- viability at 2.5 µM (NCI-H3122 [20]): 81.8%
- Activity (Mus musculus): Active
- viability at 0.625 µM (NCI-H3122 [24]): 88.9%
- Activity (NCI-H3122 [25]): 1.35%
- Activity [26]: Non-Toxic
- Activity (NCI-H3122 [27]): 72.25%
